Results from US20190289874A1, “STAIN PREVENTION FORMULATIONS” (WM. WRIGLEY JR. COMPANY, priority 2016, published 2019).

Assay: In vitro bovine teeth test (stain prevention solutions)
Conditions: for concentration showing a significant visible whitening effect: % by weight of solution, bovine teeth test; for stain-prevention effect: bovine teeth tests, dose response of solutions of Table 1 (FIG. 1), change in whitening index
Experimental: HAD assay and the bovine teeth test were employed by methods generally known in the art for screening stain prevention actives. HAD assays generally included pre-coating a HAD disc with saliva for 1-2 hours and subsequently exposing the disc to a staining broth containing tea, coffee, gastric mucin, trypticase soy broth and saliva for four days. Each day, the disc was moved from staining broth to a solution with a stain prevention formulation three times. The process was repeated for four days. The disc was dried and the color was measured. […] The color of the bovine teeth was measured before and after staining.
To evaluate stain prevention effect, the whitening index of the teeth before and after staining and treatment was calculated. The white index, W, is defined as:
W*=√{square root over ((L*−1.00)^2+(a*)^2+(b*)^2)}
A pure white substance will have W value of […]. The higher the value of ΔW, the whiter the sample would be.
In total, 4-6 HA discs or bovine teeth were tested for each compound or combination. The values were averaged.

Structure (SMILES) | concentration showing a significant visible whitening effect [%] | stain-prevention effect | relative effectiveness for stain prevention (comparison between compounds or combinations)
CCCCCCCCCCCC(=O)N[C@@H](CCCN=C(N)N)C(=O)OCC [LAE, lauroyl arginine ethyl ether] | ≥ 0.05 | very effective | 
O=P([O-])([O-])OP(=O)([O-])[O-].[Na+].[Na+].[Na+].[Na+] [SPP, sodium pyrophosphate] |  | very effective | 
O=P(O)(O)OP(=O)(O)OP(=O)(O)O [STP, sodium tripolyphosphate] | ≥ 0.1 | very effective | more effective
NC(N)=O [Urea, urea] |  | very effective | 
OO [hydrogen peroxide, reference compound] | ≥ 0.25 |  | 
